Assays:
[1] = molecular target: Recombinant cathepsin B (rCatB) (Homo sapiens, UniProt P07858); test: Competitive inhibition of recombinant cathepsin B, residual activity labeled with GB123, SDS PAGE; format: biochemical; conditions: fluorescent SDS-PAGE, FIG. 8C
Experimental: (§1) Recombinant cathepsin B and L (rCatB and rCatL, respectively) were incubated for 45 minutes at 37° C. with 1 μl of increasing concentrations of cathepsin inhibitors (GB111-NH2 or MGB, respectively), residual cathepsin activity was labeled by addition of 1 μM of GB123 fluorescent activity-based probe for 45 minutes at 37° C., sample buffer was added for 2 min and the sample was boiled at 100° C. for 2 minutes. Equal amount of each sample was separated by a 12.5% SDS PAGE, this experiment was repeated 3 times. The gel was scanned for fluorescence by a Typhoon scanner. The bands were quantified by ImageJ software and then IC50 curves were generated from triplicate experiment by Prism-GraphPad software.

[2] = molecular target: Recombinant cathepsin L (rCatL) (Homo sapiens, UniProt P07711); test: Competitive inhibition of recombinant cathepsin L, residual activity labeled with GB123, SDS PAGE; format: biochemical; conditions: fluorescent SDS-PAGE, FIG. 8C
Experimental: as §1

[3] = system: endogenous cathepsin activity (cathepsin L/B) in lung cancer A549 cells; test: Cathepsin inhibition in intact A549 cells, residual activity labeled with GB123; format: cell-based; conditions: for IC50: 1 hour at 37° C., FIG. 9B
Experimental: The ability of MGB to penetrate cells and inhibit endogenous cathepsin activity was tested in lung cancer A549 cells. This model (lung cells) was chosen since corona virus is known to infect the respiratory system. Intact cells were treated with inhibitors and the residual activity was determined by GB123. Inhibition was detected on SDS-PAGE Potent inhibitors reduce the residual activity and as a result, a reduction in fluorescently labeled cathepsins is seen (FIG. 9A). The cathepsin activity was quantification and IC50 curves were plotted.

[4] = system: endogenous cathepsin activity; test: Endogenous inhibition of cathepsin activity, ACE2-ab-MGB compared to MGB (FIG. 10); format: cell-based; conditions: FIG. 10A-10B
Experimental: 2.5*10^5 cells per well (A549, U87 or HepG2), were seeded in 6 well plates one day before incubation with indicated concentrations of inhibitors (GB111-NH2 or MGB, respectively) for 1 hour at 37° C. Residual cathepsin activity was labeled by the addition of 2 μM of GB123 for 2 hours at 37° C. Sample buffer was added and samples were boiled at 100° C. for 10 min. Equal protein amounts of each sample were resolved by a 12.5% SDS PAGE. a) Gels were scanned for fluorescence by a Typhoon scanner. b) The gel bands were quantified using ImageJ software and IC50 curves were generated from triplicate experiments using Prism-GraphPad software.

[5] = system: A549, HepG2, U87, and Hacat cells; test: Cell viability assay (methylene blue, 72 hours); format: cell-based
Experimental: The cells were incubated with compounds at indicated concentrations for 72 hours at 37° C. and then fixed by 2.5% glutaraldehyde for 1 hour at room temperature and stained with methylene blue. Growth was compared to vehicle-treated cells designated as 100%.

[6] = system: B16-F10 tumors; test: Resistant B16-F10 melanoma tumor-bearing mice; format: in vivo; conditions: combination of GB111-NH2 (30 mg/kg) and anti PD-1 (100 μg/dose), every 4 days from day 5
Experimental: A sensitive IT treatment model, D4M tumors and, a more resistant model, IT B16-F10 tumor Cells were injected subcutaneously (SC) to the back of the mice and their growth was measured continuously by caliper. Anti PD-1 was administered intra peritoneally (IP) twice, a few days after the tumor could be palpated, and on indicated days and doses as described in the methods, changes in tumor volume were measured during the experiment (FIG. 4A).
To determine the cathepsin activity in both models, one day prior to sacrifice, GB123 (a fluorescent cathepsin activity-based probe) was administered IV, and tumors were harvested for further biochemical examination. Tumor tissue was subjected to fluorescence-activated cell sorting (FACS) analysis to determine the percentage of tumor associated macrophages (TAMs) that express high cathepsin activity.
The effect of the inhibition of cathepsin activity on the resistance to IT was examined using the resistant B16-F10 tumor-bearing mice with IT (anti-PD-1), GB111-NH2 (cathepsin inhibitor), or their combinations. The B16-F10 tumor-bearing mice were treated every 4 days, starting on day 5 after cell inoculation with anti PD-1 (100 μg/dose), GB111-NH2 (30 mg/kg) or their combinations; IT was given a day before GB111-NH2 (a group of GB111-NH2 first and IT a day later was included). […] In addition, survival plots were generated (FIG. 6B).

[7] = system: cathepsins B, L and S; test: Cathepsin activity in lysates of patients' cells and hematological malignancy cell lines, GB123 labeling; format: cell-based, human
Experimental: Cell lysates from hematological malignancies patients were pretreated with vehicle, or a cathepsin inhibitor GB111-NH2 for 0.5 hour, then labeled by addition of 1 μmol/L GB123 probe for 1 hour. Equal amounts of protein were separated and visualized by scanning of the gel with a Typhoon flatbed laser scanner. Each lane was taken from a different patient. MZL-Marginal zone lymphoma, CLL-chronic lymphocytic leukemia, DLBCL-Diffuse large B-cell lymphoma.
Crude detergent lysates from cells that were pretreated with either cathepsin inhibitor GB111-NH2 or with control DMSO; vehicle for 20 minutes and then labeled by addition of 1 μmol/L GB123 probe for 1 hour. Equal amounts of protein (see Coomassie) were separated and visualized by scanning of the gel with a Typhoon flatbed laser scanner.
To verify activity dependent labeling, indicated samples were pre-incubated with GB111-NH2, a potent cathepsin inhibitor, prior to GB123 labeling. After incubation with GB123, a fluorescent scan of SDS-PAGE was done. Cathepsin activity was detected in lysates of cells from human Chronic lymphocytic leukemia (CLL) and Diffuse large B-cell lymphoma (DLBCL) patients as well as healthy population (FIG. 13).

[8] = system: OCI-Ly19 DLBCL cells; test: Lymphoma cell death assay (caspase-3 activation, annexin V staining); format: cell-based
Experimental: OCI-Ly19 DLBCL cells were treated with GB111-NH2 for 1 hour and the cells were evaluated for caspase-3 activation and annexin V staining as indications for apoptosis.
Caspase-3 activation was assessed through the evaluation of caspase-3 enzyme activity (100 ng of protein) with the substrate Ac-DEVD-pNA (N-acetyl-Asp-Glu-Val-Asp-p-nitroaniline) in a colorimetric assay 24 hours post treatment.

[9] = system: blood cells isolated from peripheral blood and bone marrow of CLL patients; test: Annexin V staining and cathepsin S activity in blood cells of CLL patients; format: cell-based, human
Experimental: FIGS. 14A-14D are bar graphs and images presenting the inhibition of cathepsins induces apoptosis in OCI-Ly19 cells. (14A) Caspase-3 activation; (14B) FACS analysis of stained cells with anti-Annexin V; (14C) Mononuclear cells from CLL patients were isolated by FICOL, treated with 5 uM GB111-NH2 for 1 hour and stained with anti-Annexin V; and (14D) labeled crude detergent lysates.
The ability of GB111-NH2 to promote lymphoma cell death was examined. […] Cathepsin S activity in these cells was initially high and was reduced to 40% (+10%).

[10] = system: NF-κB reporter in OCI-Ly19 cells; test: NF-κB signaling assay (luciferase reporter); format: cell-based; conditions: 5 μM, 0.5 μg LPS, 24 h induction; potent as SC-514
Experimental: Cells were transfected by electroporation with NF-κB reporter plasmid. After selection, the cells were harvested, and the luciferase activities were measured and normalized. 5 μM GB111-NH2 inhibited activity of NF-κB reporter in OCI-Ly 19 cells induced by 0.5 μg LPS (24 h induction). 10 μM SC-514, a specific suppressor of NF-κB activity, was used as positive control.

[11] = system: CD74 in OCI-Ly3 and OCI-Ly19; test: CD74 expression by Western blot and FACS; format: cell-based
Source text: The CD74 expression was examined by Western blot (WB) and FACS in OCI-Ly3 and OCI-Ly19 treated with GB111-NH2, LPS or LPS pretreated with GB111-NH2.

Sequence of Recombinant cathepsin L (rCatL) (P07711 114-333, species assumed): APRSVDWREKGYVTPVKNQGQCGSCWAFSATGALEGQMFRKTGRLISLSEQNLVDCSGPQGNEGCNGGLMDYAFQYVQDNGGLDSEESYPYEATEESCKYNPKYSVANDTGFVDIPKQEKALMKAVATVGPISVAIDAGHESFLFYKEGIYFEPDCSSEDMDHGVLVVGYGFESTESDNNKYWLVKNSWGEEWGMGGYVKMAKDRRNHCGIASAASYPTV

inhibition of rCatB [1]	inhibition of rCatL [2]	IC50 [3]	IC50 [4]	SMILES	cell viability ([5]; even at a concentration of 5 μM)	potency relative to MGB [3]	cell viability ([5]; even at low concentrations as 1 μM)	Tumor volume [6]	cathepsin activity in OCI-Ly19 cells ([7]; NF-κB reporter cells treated with LPS)	cathepsins activity ([7]; patients' cells and lymphoma cell lines, pretreatment before GB123 labeling)	increase in caspase-3 activity ([8]; OCI-Ly19, 24 hours post treatment)	increase in Annexin V staining ([8]; OCI-Ly19, treated for 1 hour)	Annexin V staining ([9]; 5 uM for 1 hour, p value 0.016)	Cathepsin S activity, reduced to ([9]; CLL patients' cells)	LPS-induced NF-κB transcriptional activity [10]	surface expression of CD74 (FACS) [11]
inhibits	inhibits	1900 nM	1700 ± 600 nM	Cc1cccc(C)c1C(=O)OCC(=O)[C@H](CCCCN)NC(=O)[C@H](Cc1ccccc1)NC(=O)[C@H](Cc1ccccc1)NC(=O)CCCCCN1C(=O)C=CC1=O [MGB]	safe to cells	–	–	–	–	–	–	–	–	–	–	–
–	–	6 nM	–	Cc1cccc(C)c1C(=O)OCC(=O)[C@H](CCCCN)NC(=O)[C@H](Cc1ccccc1)NC(=O)OCc1ccccc1 [GB111-NH2]	–	over 200 fold	reduced cell viability significantly	significantly smaller tumors	blocked cathepsin activity	abolished cathepsins activity	4.5 fold	2.5 fold	increased Annexin V staining	40%	suppressed LPS-induced NF-κB transcriptional activity	reduces the surface expression of CD74

Source: patent US20250170097A1, “CATHEPSIN INHIBITORS AND USE THEREOF IN A METHOD FOR DETECTING AND TREATING RESISTANCE TO IMMUNOTHERAPY” (YISSUM RESEARCH DEVELOPMENT COMPANY OF THE HEBREW …, priority 2022, published 2025)
